The text below walks through data of patent US12522599B2, “Crystal forms of acrylic acid derivatives, preparation method therefor and use thereof” (ZHEJIANG HISUN PHARMACEUTICAL CO., LTD., priority 2019, dated 2026).

One data set can be described thus: Granularity experiment. The format is physicochemical. The procedure: The amorphous form of compound of formula I prepared in Preparation Example, the crystal form A of the compound of formula I prepared in Example 1, the crystal form B of the compound of formula I prepared in Example 7, and the crystal form C of the compound of formula I prepared in Example 11 were measured for granularity, and the specific results are shown in the following table: […]

Data set [1] is described as follows: Stability experiment (75% RH, 92.5% RH, 40° C., 60° C. and light for 10 days; XRPD pattern and purity). To be noted: for stability (in words): 60° C. and light for 10 days. The format is physicochemical. The procedure:
X-ray powder diffraction instrument and test conditions involved in the present disclosure: the model of the X-ray diffraction instrument was Rigaku D/max-2200 Cu target; the operation method included a scanning speed of 10°/min and scanning step width of 0.01°.
High-performance liquid chromatography (HPLC) test conditions involved in the present disclosure: the model of the liquid chromatograph was Agilent 1260; the chromatographic column was Agilent Eclipse XDB C-18 250 mm*4.6 mm Sum; the detection wavelength was 280 nm; and the column temperature was 35° C.
The amorphous form of compound of formula I prepared in Preparation Example, the crystal form A of the compound of formula I prepared in Example 1, the crystal form B of the compound of formula I prepared in Example 7, and the crystal form C of the compound of formula I prepared in Example 11 were placed in 75% RH, 92.5% RH, 40° C., 60° C. and light for 10 days respectively, and the X-ray powder diffraction pattern and purity of each crystal form were measured.

A short description of data set [2]: Flowability test (angle of repose). The format is physicochemical. The method, then: The amorphous form of compound of formula I prepared in Preparation Example, the crystal form A of the compound of formula I prepared in Example 1, the crystal form B of the compound of formula I prepared in Example 7, and the crystal form C of the compound of formula I prepared in Example 11 were measured for angle of repose, and the specific results are shown in the following table: […]

A further data set has as its target T1, ERα (Homo sapiens, UniProt P03372).
T1 sequence (P03372 1-595): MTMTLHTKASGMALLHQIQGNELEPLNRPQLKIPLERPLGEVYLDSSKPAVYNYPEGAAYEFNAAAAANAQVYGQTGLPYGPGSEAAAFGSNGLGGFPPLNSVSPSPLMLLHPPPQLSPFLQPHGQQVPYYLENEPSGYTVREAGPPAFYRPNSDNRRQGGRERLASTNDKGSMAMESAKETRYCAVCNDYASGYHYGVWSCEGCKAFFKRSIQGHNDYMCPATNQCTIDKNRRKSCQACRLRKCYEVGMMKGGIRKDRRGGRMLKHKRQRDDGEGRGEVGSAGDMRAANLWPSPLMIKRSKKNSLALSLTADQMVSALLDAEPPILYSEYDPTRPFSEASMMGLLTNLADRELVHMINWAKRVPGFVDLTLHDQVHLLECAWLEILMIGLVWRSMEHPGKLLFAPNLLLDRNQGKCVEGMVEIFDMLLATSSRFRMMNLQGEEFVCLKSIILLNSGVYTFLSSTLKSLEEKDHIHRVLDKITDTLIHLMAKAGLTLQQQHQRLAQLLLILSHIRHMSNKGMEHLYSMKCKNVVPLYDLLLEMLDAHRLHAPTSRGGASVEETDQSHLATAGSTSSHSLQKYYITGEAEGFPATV
The following applies: as indicated in WO2017080338A1; cited from earlier work.

The mark [3] stands for this setting: compared with crystal forms A, B and C.

As for `C[C@@H]1Cc2c([nH]c3ccccc23)[C@@H](c2c(F)cc(/C=C/C(=O)O)cc2F)N1CC1(F)CC1` [crystal form A, (E)-3-(3,5-difluoro-4-((1R,3R)-2-((1-fluorocyclopropyl)methyl)-3-methyl-2,3,4,9-tetrahydro-1H-pyrido[3,4-b]indol-1-yl)phenyl)acrylic acid], in “Granularity experiment” (granularity), the D50 amounted to 16.37 μm. Further, the D90 in the data set “Granularity experiment” (granularity) is on record as 61.86 μm. Also, the Purity % is reported as 99.33% in data set [1] (0 day); 99.27% in data set [1] (40° C., 10 days); 99.22% in data set [1] (60° C., 10 days); 99.31% in data set [1] (75% RH, 10 days); 99.34% in data set [1] (92.5% RH, 10 days); 99.27% in data set [1] (Light, 10 days). In addition, in data set [1] (75% RH, 92.5% RH, 40° C.), the “stability (in words)” value is “good stability”. Further, the angle of repose is recorded as 30.6° in data set [2] (measurement 1), 29.6° in data set [2] (measurement 2) and 30.5° in data set [2] (measurement 3).
Turning to `C[C@@H]1Cc2c([nH]c3ccccc23)[C@@H](c2c(F)cc(/C=C/C(=O)O)cc2F)N1CC1(F)CC1` [crystal form C, (E)-3-(3,5-difluoro-4-((1R,3R)-2-((1-fluorocyclopropyl)methyl)-3-methyl-2,3,4,9-tetrahydro-1H-pyrido[3,4-b]indol-1-yl)phenyl)acrylic acid], the D50 in “Granularity experiment” (granularity) is on record as 15.02 μm. The D90 in the data set “Granularity experiment” (granularity) was 59.88 μm. Moreover, the Purity % in data set [1] (0 day) was found to be 99.78%; in data set [1] (40° C., 10 days), 99.80%; in data set [1] (60° C., 10 days), 99.84%; in data set [1] (75% RH, 10 days), 99.79%; in data set [1] (92.5% RH, 10 days), 99.78%; in data set [1] (Light, 10 days) it was 99.71%. The “stability (in words)” value in data set [1] (75% RH, 92.5% RH, 40° C.) was “good stability”. Further, the angle of repose in data set [2] (measurement 1) came out at 31.5°; in data set [2] (measurement 2), 31.8°; in data set [2] (measurement 3) it was 30.9°.
In the case of `C[C@@H]1Cc2c([nH]c3ccccc23)[C@@H](c2c(F)cc(/C=C/C(=O)O)cc2F)N1CC1(F)CC1` [amorphous form, (E)-3-(3,5-difluoro-4-((1R,3R)-2-((1-fluorocyclopropyl)methyl)-3-methyl-2,3,4,9-tetrahydro-1H-pyrido[3,4-b]indol-1-yl)phenyl)acrylic acid], in “Granularity experiment” (setting [3]), the “granularity (in words)” value was “significantly smaller than that of the crystal forms A, B, and C”. Further, the D50 in the data set “Granularity experiment” (granularity) is reported as 3.02 μm. Also, the granularity in “Granularity experiment” (granularity, second column under amorphous form) amounted to 23.01 μm. The Purity % in data set [1] (0 day) is on record as 95.82%; in data set [1] (40° C., 10 days), 95.80%; in data set [1] (60° C., 10 days), 95.67%; in data set [1] (75% RH, 10 days), 96.22%; in data set [1] (92.5% RH, 10 days), 96.57%; in data set [1] (Light, 10 days), 95.55%. Also, the “angle of repose (in words)” value in data set [2] (setting [3]) was “significantly larger than that of the crystal forms A, B and C”. Also, the angle of repose in data set [2] (measurement 1) was determined as 43.2°; in data set [2] (measurement 2) it was 41.9°; in data set [2] (measurement 3), 42.5°.
As to `C[C@@H]1Cc2c([nH]c3ccccc23)[C@@H](c2c(F)cc(/C=C/C(=O)O)cc2F)N1CC1(F)CC1` [crystal form B, (E)-3-(3,5-difluoro-4-((1R,3R)-2-((1-fluorocyclopropyl)methyl)-3-methyl-2,3,4,9-tetrahydro-1H-pyrido[3,4-b]indol-1-yl)phenyl)acrylic acid], the D50 in the data set “Granularity experiment” (granularity) turned out to be 15.48 μm. In “Granularity experiment” (granularity), this compound yielded a D90 of 60.79 μm. For the same compound, the Purity % in data set [1] (0 day) was found to be 99.87%; in data set [1] (40° C., 10 days), 99.77%; in data set [1] (60° C., 10 days), 99.75%; in data set [1] (75% RH, 10 days), 99.81%; in data set [1] (92.5% RH, 10 days), 99.81%; in data set [1] (Light, 10 days), 99.68%. The “stability (in words)” value in data set [1] (75% RH, 92.5% RH, 40° C.) is reported as “good stability”. Moreover, the angle of repose in data set [2] (measurement 1) was 32.5°; in data set [2] (measurement 2), 31.3°; in data set [2] (measurement 3), 32.3°.
Take `C[C@@H]1Cc2c([nH]c3ccccc23)[C@@H](c2c(F)cc(/C=C/C(=O)O)cc2F)N1CC1(F)CC1` [compound of formula I, (E)-3-(3,5-difluoro-4-((1R,3R)-2-((1-fluorocyclopropyl)methyl)-3-methyl-2,3,4,9-tetrahydro-1H-pyrido[3,4-b]indol-1-yl)phenyl)acrylic acid]: the “effect of down-regulating ERα” value on ERα is “good effect of down-regulating ERα”.
